Measured values from US11873295B2, “Allosteric chromenone inhibitors of phosphoinositide 3-kinase (PI3K) for the treatment of disease” (Petra Pharma Corporation, priority 2021, dated 2024).

Columns and labels:
[1] = biological target: T1, human full length PIK3KA H1047R mutant (p110α/p85α complex) (Homo sapiens, UniProt P42336, H1047R); assay: PI3K-alpha kinase (PIK3CA) biochemical activity, H1047R mutant, ADP-Glo; conditions: PI3K-α (PIK3CA) biochemical, H1047R mutant, Soy PI lipid substrate
T1 construct: Recombinant, catalytically active human full length PIK3KA Wild-type and H1047R mutant were purchased as 1:1 complex; 6xHis (N); purchased EMD Millipore Sigma 14-792M
T1 sequence (P42336 whole entry H1047R): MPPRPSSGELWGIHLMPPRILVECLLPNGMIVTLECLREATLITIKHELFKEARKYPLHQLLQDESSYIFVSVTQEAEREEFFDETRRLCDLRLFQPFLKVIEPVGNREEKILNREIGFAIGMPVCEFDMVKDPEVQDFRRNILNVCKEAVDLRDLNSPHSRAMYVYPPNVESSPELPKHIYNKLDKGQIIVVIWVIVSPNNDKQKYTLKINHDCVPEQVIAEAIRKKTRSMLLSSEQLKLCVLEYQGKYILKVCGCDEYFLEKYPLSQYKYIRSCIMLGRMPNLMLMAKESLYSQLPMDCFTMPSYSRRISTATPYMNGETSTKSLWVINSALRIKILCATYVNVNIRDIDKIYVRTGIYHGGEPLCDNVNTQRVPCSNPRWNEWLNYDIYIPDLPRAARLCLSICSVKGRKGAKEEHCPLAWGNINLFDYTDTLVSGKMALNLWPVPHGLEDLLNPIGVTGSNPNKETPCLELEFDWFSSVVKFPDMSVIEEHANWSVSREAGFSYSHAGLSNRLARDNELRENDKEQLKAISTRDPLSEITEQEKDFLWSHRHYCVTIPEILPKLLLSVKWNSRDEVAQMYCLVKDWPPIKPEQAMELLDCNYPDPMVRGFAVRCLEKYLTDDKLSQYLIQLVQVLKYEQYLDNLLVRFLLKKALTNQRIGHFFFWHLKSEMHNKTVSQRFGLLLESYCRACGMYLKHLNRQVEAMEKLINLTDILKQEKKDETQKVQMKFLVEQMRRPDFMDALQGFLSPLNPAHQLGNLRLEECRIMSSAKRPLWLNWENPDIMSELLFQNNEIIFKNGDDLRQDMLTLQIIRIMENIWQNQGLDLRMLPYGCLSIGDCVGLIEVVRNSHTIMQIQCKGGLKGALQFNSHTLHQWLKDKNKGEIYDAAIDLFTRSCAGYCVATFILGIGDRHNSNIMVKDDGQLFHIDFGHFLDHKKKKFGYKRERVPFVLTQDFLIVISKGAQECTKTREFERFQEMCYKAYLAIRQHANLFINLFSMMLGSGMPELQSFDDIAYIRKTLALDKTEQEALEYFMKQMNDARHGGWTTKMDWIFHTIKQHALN
T1 sequence (P27986 whole entry partner): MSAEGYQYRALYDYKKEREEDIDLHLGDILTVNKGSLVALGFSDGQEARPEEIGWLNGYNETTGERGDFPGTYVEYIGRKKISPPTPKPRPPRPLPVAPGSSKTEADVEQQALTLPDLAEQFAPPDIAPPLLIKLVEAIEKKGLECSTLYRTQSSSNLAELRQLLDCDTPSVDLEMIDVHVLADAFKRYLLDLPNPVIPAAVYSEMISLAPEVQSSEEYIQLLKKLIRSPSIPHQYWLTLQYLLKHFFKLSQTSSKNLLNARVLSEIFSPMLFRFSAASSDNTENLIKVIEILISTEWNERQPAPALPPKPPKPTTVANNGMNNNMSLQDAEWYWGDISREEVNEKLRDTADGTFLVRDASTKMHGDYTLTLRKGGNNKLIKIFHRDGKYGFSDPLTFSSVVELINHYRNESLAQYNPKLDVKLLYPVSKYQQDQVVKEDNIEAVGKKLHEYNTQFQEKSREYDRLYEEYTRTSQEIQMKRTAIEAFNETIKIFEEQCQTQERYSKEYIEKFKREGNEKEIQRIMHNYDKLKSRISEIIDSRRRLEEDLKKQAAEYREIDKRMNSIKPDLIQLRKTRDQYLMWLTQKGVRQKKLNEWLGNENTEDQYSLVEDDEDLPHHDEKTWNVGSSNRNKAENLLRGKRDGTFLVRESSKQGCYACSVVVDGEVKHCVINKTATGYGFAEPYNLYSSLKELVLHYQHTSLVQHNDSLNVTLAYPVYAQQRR
Procedure, shortened: (§1)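 ADP formation, read by ADP-Glo, is run to about 10% ATP turnover at 27 °C with 20 μM ATP and 50 μM PIP2diC8 or soy PI. WT or H1047R p110α/p85α (1–5 nM) is pre-incubated 1 h with compound in HEPES pH 7.4/MgCl2/Triton buffer, 1% DMSO. 10-point 1:3 series, logistic IC50 versus no-enzyme and DMSO controls.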

[2] = tested on: PI3K-α (PIK3CA) in MDA-MB-453 cells; assay: PI3K-alpha kinase (PIK3CA) activity in vitro cell based assay, MDA-MB-453 cells, AlphaLisa SureFire; conditions: 0% FBS, 3 hours treatment, relative IC50
Procedure, shortened: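 MDA-MB-453 cells in serum-free MEM with 1 μg/mL insulin treated 3 h with 10-point 1:3 compound dilutions, 0.3% DMSO. Lysates read by AlphaLisa SureFire; percent inhibition relative to DMSO (max) and 1 μM GDC-0032 (min), duplicate means fitted to 4-parameter logistic for relative IC50.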

[3] = biological target: T2, human full length PIK3KA Wild-type (p110α/p85α complex) (Homo sapiens, UniProt P42336); assay: PI3K-alpha kinase (PIK3CA) biochemical activity, wild-type, ADP-Glo; conditions: PI3K-α (PIK3CA) biochemical, Soy PI lipid substrate
T2 construct: Recombinant, catalytically active human full length PIK3KA Wild-type and H1047R mutant were purchased as 1:1 complex; 6xHis (N); purchased EMD Millipore Sigma 14-602M
Procedure, shortened: as §1

Row | SMILES | IC50 [1] | IC50 ([2]; Homo sapiens, MDA-MB-453, 3 h) | IC50 [3] | IC50 [2]
1 | Cc1cc([C@@H](C)Nc2ccccc2C(=O)O)c2oc(-c3cccc(C(C)(C)C#N)c3)c(C)c(=O)c2c1 [Example 117, 2-[[(1R)-1-[2-[3-(1-Cyano-1-methyl-ethyl)phenyl]-3,6-dimethyl-4-oxo-chromen-8-yl]ethyl]amino]benzoic acid 2,2,2-trifluoroacetic acid] | < 500 nM | < 50 nM | 1000 to 5000 nM | 
2 | Cc1cc([C@@H](C)Nc2ccccc2C(=O)O)c2oc(-c3cccc(C(C)(C)C(N)=O)c3)c(C)c(=O)c2c1 [Example 118, 2-[[(1R)-1-[2-[3-(2-Amino-1,1-dimethyl-2-oxo-ethyl)phenyl]-3,6-dimethyl-4-oxo-chromen-8-yl]ethyl]amino]benzoic acid 2,2,2-trifluoroacetic acid] | < 500 nM | 100 to 500 nM | 1000 to 5000 nM | 
3 | CC(=O)c1c(-c2ccccc2)oc2c([C@@H](C)Nc3ccccc3C(=O)O)cc(C)cc2c1=O [Example 119, 2-[[(1R)-1-(3-Acetyl-6-methyl-4-oxo-2-phenyl-chromen-8-yl)ethyl]amino]benzoic acid 2,2,2-trifluoroacetic acid] | < 500 nM | < 50 nM | 500 to 1000 nM | 
4 | Cc1c(-c2ccccc2)oc2c([C@@H](C)Nc3cccnc3C(=O)O)cc(C(F)(F)F)cc2c1=O [Example 122, 3-[[(1R)-1-[3-Methyl-4-oxo-2-phenyl-6-(trifluoromethyl)-chromen-8-yl]ethyl]amino]pyridine-2-carboxylic acid] | 1000 to 5000 nM | 50 to 100 nM | > 10000 nM | 
5 | Cc1cc([C@@H](C)Nc2ccc(C(F)(F)F)nc2C(=O)O)c2oc(-c3cccc(C#N)c3)c(C)c(=O)c2c1 [Example 126, 3-[[(1R)-1-[2-(3-Cyanophenyl)-3,6-dimethyl-4-oxo-chromen-8-yl]ethyl]amino]-6-(trifluoromethyl)pyridine-2-carboxylic acid] | < 500 nM | < 50 nM | 1000 to 5000 nM | 
6 | Cc1cc([C@@H](C)Nc2ccc(C(F)(F)F)cc2C(=O)O)c2oc(-c3cccc(C#N)c3)c(C)c(=O)c2c1 [Example 128, 2-[[(1R)-1-[2-(3-Cyanophenyl)-3,6-dimethyl-4-oxo-chromen-8-yl]ethyl]amino]-5-(trifluoromethyl)benzoic acid] | < 500 nM | 50 to 100 nM | 1000 to 5000 nM | 
7 | Cc1cc([C@@H](C)Nc2ccc(F)cc2C(=O)O)c2oc(-c3cccc(C#N)c3)c(C)c(=O)c2c1 [Example 129, 2-[[(1R)-1-[2-(3-Cyanophenyl)-3,6-dimethyl-4-oxo-chromen-8-yl]ethyl]amino]-5-fluoro-benzoic acid] | < 500 nM | < 50 nM | < 500 nM | 
8 | COc1ccc(N[C@H](C)c2cc(C)cc3c(=O)c(C)c(-c4ccccc4)oc23)c(C(=O)O)n1 [Example 135, 6-Methoxy-3-[[(1R)-1-(3,6-dimethyl-4-oxo-2-phenyl-chromen-8-yl)ethyl]amino]pyridine-2-carboxylic acid 2,2,2-trifluoroacetic acid] | < 500 nM | < 50 nM | 500 to 1000 nM | 
9 | Cc1cc([C@@H](C)Nc2ncccc2C(=O)O)c2oc(-c3ccccc3)c(C)c(=O)c2c1 [Example 137, 2-[[(1R)-1-(3,6-Dimethyl-4-oxo-2-phenyl-chromen-8-yl)ethyl]amino]pyridine-3-carboxylic acid] | < 500 nM | < 50 nM | 1000 to 5000 nM | 
10 | Cc1cc([C@@H](C)Nc2cnccc2C(=O)O)c2oc(-c3ccccc3)c(C)c(=O)c2c1 [Example 138, 3-[[(1R)-1-(3,6-Dimethyl-4-oxo-2-phenyl-chromen-8-yl)ethyl]amino]pyridine-4-carboxylic acid] | < 500 nM | 100 to 500 nM | > 10000 nM | 
11 | Cc1cc(C(C)Nc2ccc(Cl)nc2C(=O)O)c2oc(-c3ccccc3)c(I)c(=O)c2c1 (stereo not drawn) [Example 140, 6-Chloro-3-[1-(3-iodo-6-methyl-4-oxo-2-phenyl-chromen-8-yl)ethylamino]pyridine-2-carboxylic acid 2,2,2-trifluoroacetic acid] | < 500 nM | < 50 nM | 1000 to 5000 nM | 

Results, then the compound that gave them:

Row | IC50 [1] | IC50 ([2]; Homo sapiens, MDA-MB-453, 3 h) | IC50 [3] | IC50 [2] | SMILES
12 | < 500 nM | < 50 nM | < 500 nM |  | Cc1cc([C@@H](C)Nc2ccc(Cl)nc2C(=O)O)c2oc(-c3cccc(C#N)c3)c(C)c(=O)c2c1 [Example 115, 6-Chloro-3-[[(1R)-1-[2-(3-cyanophenyl)-3,6-dimethyl-4-oxo-chromen-8-yl]ethyl]amino]pyridine-2-carboxylic acid 2,2,2-trifluoroacetic acid]
13 | 1000 to 5000 nM | 50 to 100 nM | > 10000 nM |  | Cc1cc([C@@H](C)Nc2cccnc2C(=O)O)c2oc(-c3ccc(F)c(F)c3)c(C)c(=O)c2c1 [Example 120, 3-[[(1R)-1-[2-(3,4-Difluorophenyl)-3,6-dimethyl-4-oxo-chromen-8-yl]ethyl]amino]pyridine-2-carboxylic acid]
14 | < 500 nM |  | 500 to 1000 nM | < 50 nM | Cc1cc([C@@H](C)Nc2ccc(Cl)nc2C(=O)O)c2oc(-c3cccc(C#N)c3)c(C)c(=O)c2c1 [Example 121, 6-Chloro-3-[[(1R)-1-[2-(3-cyanophenyl)-3,6-dimethyl-4-oxo-chromen-8-yl]ethyl]amino]pyridine-2-carboxylic acid]
15 | < 500 nM | < 50 nM | 1000 to 5000 nM |  | Cc1cc([C@@H](C)Nc2ccc(C(F)(F)F)nc2C(=O)O)c2oc(-c3ccc(F)c(F)c3)c(C)c(=O)c2c1 [Example 123, 3-[[(1R)-1-[2-(3,4-Difluorophenyl)-3,6-dimethyl-4-oxo-chromen-8-yl]ethyl]amino]-6-(trifluoromethyl)pyridine-2-carboxylic acid]
16 | < 500 nM | < 50 nM | 1000 to 5000 nM |  | Cc1cc([C@@H](C)Nc2ccc(C)nc2C(=O)O)c2oc(-c3ccc(F)c(F)c3)c(C)c(=O)c2c1 [Example 124, 3-[[(1R)-1-[2-(3,4-Difluorophenyl)-3,6-dimethyl-4-oxo-chromen-8-yl]ethyl]amino]-6-methyl-pyridine-2-carboxylic acid]
17 | 500 to 1000 nM | 50 to 100 nM | 5000 to 10000 nM |  | Cc1cc([C@@H](C)Nc2cccnc2C(=O)O)c2oc(-c3cccc(C#N)c3)c(C)c(=O)c2c1 [Example 125, 3-[[(1R)-1-[2-(3-Cyanophenyl)-3,6-dimethyl-4-oxo-chromen-8-yl]ethyl]amino]pyridine-2-carboxylic acid]
18 | < 500 nM | 50 to 100 nM | 1000 to 5000 nM |  | Cc1cc([C@@H](C)Nc2ccc(C)nc2C(=O)O)c2oc(-c3cccc(C#N)c3)c(C)c(=O)c2c1 [Example 127, 3-[[(1R)-1-[2-(3-Cyanophenyl)-3,6-dimethyl-4-oxo-chromen-8-yl]ethyl]amino]-6-methyl-pyridine-2-carboxylic acid]
19 | < 500 nM | < 50 nM | 1000 to 5000 nM |  | Cc1cc([C@@H](C)Nc2cccc(F)c2C(=O)O)c2oc(-c3ccc(F)cc3F)c(C)c(=O)c2c1 [Example 130, 2-[[(1R)-1-[2-(2,4-Difluorophenyl)-3,6-dimethyl-4-oxo-chromen-8-yl]ethyl]amino]-6-fluoro-benzoic acid 2,2,2-trifluoroacetic acid]
20 | < 500 nM | < 50 nM | 1000 to 5000 nM |  | Cc1cc([C@@H](C)Nc2ccc(Cl)nc2C(=O)O)c2oc(-c3ccc(F)cc3F)c(C)c(=O)c2c1 [Example 131, 6-Chloro-3-[[(1R)-1-[2-(2,4-difluorophenyl)-3,6-dimethyl-4-oxo-chromen-8-yl]ethyl]amino]pyridine-2-carboxylic acid 2,2,2-trifluoroacetic acid]
21 | < 500 nM | < 50 nM | 5000 to 10000 nM |  | Cc1cc([C@@H](C)Nc2ccc(C)nc2C(=O)O)c2oc(-c3cccc(F)c3)c(C)c(=O)c2c1 [Example 134, 3-[[(1R)-1-[2-(3-Fluorophenyl)-3,6-dimethyl-4-oxo-chromen-8-yl]ethyl]amino]-6-methyl-pyridine-2-carboxylic acid]
22 | 500 to 1000 nM | 50 to 100 nM | 5000 to 10000 nM |  | Cc1cc([C@@H](C)Nc2cccnc2C(=O)O)c2oc(-c3cccc(F)c3)c(C)c(=O)c2c1 [Example 136, 3-[[(1R)-1-[2-(3-Fluorophenyl)-3,6-dimethyl-4-oxo-chromen-8-yl]ethyl]amino]pyridine-2-carboxylic acid]
23 | < 500 nM | < 50 nM | < 500 nM |  | Cc1cc([C@@H](C)Nc2ccc(Br)nc2C(=O)O)c2oc(-c3cccc(C#N)c3)c(C)c(=O)c2c1 [Example 141, 6-Bromo-3-[[(1R)-1-[2-(3-cyanophenyl)-3,6-dimethyl-4-oxo-chromen-8-yl]ethyl]amino]pyridine-2-carboxylic acid]
24 | 1000 to 5000 nM | 50 to 100 nM | > 10000 nM |  | Cc1cc([C@@H](C)Nc2cccnc2C(=O)O)c2oc(-c3ccccc3F)c(C)c(=O)c2c1 [Example 142, 3-[[(1R)-1-[2-(2-Fluorophenyl)-3,6-dimethyl-4-oxo-chromen-8-yl]ethyl]amino]pyridine-2-carboxylic acid]
